The values that follow come from PubChem BioAssay (NCI).

Several values for one entry are separate records, joined by “and”; a condition that tells them apart may be missing. Equal values may be shown once.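 These data come from cells grown in 96-well plates and exposed to compound for 48 hours at five concentrations. The concentration for 50% growth inhibition is given as GI50. Definition used: TGI = concentration required for complete inhibition of growth.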

Some test systems named below: ACHN renal; HOP-92 NSCLC; HT29 colon; LOX IMVI melanoma; M14 melanoma; MOLT-4 leukemia; OVCAR-5 ovarian; SK-OV-3 ovarian; SR leukemia; U251 CNS.
Assay in all cases: growth of human tumour cells (NCI), 48 h

As to `C#Cc1cccc(Oc2ccc(NC(=O)CCl)cc2)c1`, the GI50 in the assay with ACHN renal is > 82.5 µM; in the assay with HOP-92 NSCLC it was > 82.5 µM; in the assay with HT29 colon, > 82.5 µM; with LOX IMVI melanoma it was 18.1 µM; with M14 melanoma, 72.8 µM; in the assay on MOLT-4 leukemia, 10.8 µM. Also, the GI50 is > 82.5 µM in the assay on OVCAR-5 ovarian, > 82.5 µM in the assay with SK-OV-3 ovarian, 11.5 µM in the assay on SR leukemia and > 82.5 µM in the assay with U251 CNS. In addition, the TGI in the assay with ACHN renal is > 82.5 µM; in the assay on HOP-92 NSCLC, > 82.5 µM; in the assay on HT29 colon, > 82.5 µM; in the assay on LOX IMVI melanoma, > 82.5 µM; in the assay with M14 melanoma, > 82.5 µM; in the assay with MOLT-4 leukemia, 77.1 µM. The TGI in the assay with OVCAR-5 ovarian, with SK-OV-3 ovarian, in the assay with SR leukemia and in the assay with U251 CNS was > 82.5 µM throughout.

For `COc1ccc(-c2nnc(N3CCN(C(=O)CN4CCN(c5ccc(Cl)cc5)CC4)CC3)nc2-c2ccc(OC)cc2)cc1`, the GI50 in the assay on ACHN renal was 22.9 µM; in the assay with HOP-92 NSCLC it was 16.2 µM; in the assay on HT29 colon, 4.74 µM; with LOX IMVI melanoma, 15.6 µM; in the assay on M14 melanoma it was 35.8 µM; in the assay on MOLT-4 leukemia it was 6.53 µM. The GI50 with OVCAR-5 ovarian is > 100 µM; with SK-OV-3 ovarian, 36.6 µM; in the assay on SR leukemia, 31.5 µM; in the assay with U251 CNS it was 15 µM. Besides, the TGI is > 100 µM with ACHN renal; 39.1 µM in the assay on HOP-92 NSCLC; > 100 µM with HT29 colon; > 100 µM with LOX IMVI melanoma; > 100 µM in the assay on M14 melanoma; > 100 µM in the assay with MOLT-4 leukemia. Also, the TGI in the assay on OVCAR-5 ovarian, in the assay on SK-OV-3 ovarian, with SR leukemia and in the assay on U251 CNS was > 100 µM each time.

Take `CC1SC(c2c(Cl)cccc2Cl)N(NC(=O)C(O)c2ccccc2)C1=O` (stereo not drawn): the GI50 in the assay with ACHN renal is 92.2 µM; with HOP-92 NSCLC, 57.8 µM; in the assay with HT29 colon it was > 100 µM; in the assay on LOX IMVI melanoma, 60.7 µM; in the assay with M14 melanoma it was 87 µM; with MOLT-4 leukemia, > 100 µM. In addition, the GI50 is > 100 µM with OVCAR-5 ovarian, > 100 µM with SK-OV-3 ovarian, 34.9 µM in the assay on SR leukemia and 54.1 µM in the assay with U251 CNS. Moreover, the TGI in the assay with ACHN renal, in the assay with HOP-92 NSCLC, in the assay on HT29 colon, in the assay with LOX IMVI melanoma, in the assay with M14 melanoma and with MOLT-4 leukemia was > 100 µM in each case. Moreover, the TGI in the assay on OVCAR-5 ovarian, in the assay with SK-OV-3 ovarian, in the assay on SR leukemia and with U251 CNS was > 100 µM throughout.

In the case of `O=C1C(=O)c2ccccc2C(O)=C1CC=C(Cl)Cl`, the GI50 was 3.48 µM and 7.5 µM in the assay with ACHN renal; 14.2 µM and 11.8 µM with HOP-92 NSCLC; 6.4 µM in the assay with HT29 colon; 2.68 µM in the assay on LOX IMVI melanoma; 29.4 µM and 9.94 µM with M14 melanoma; 0.828 µM and 4.68 µM in the assay on MOLT-4 leukemia. Besides, the GI50 is 17.2 µM and 28.3 µM in the assay with OVCAR-5 ovarian; 15.1 µM and 16.1 µM with SK-OV-3 ovarian; 0.924 µM and 4.89 µM in the assay with SR leukemia; 2.17 µM and 2.01 µM with U251 CNS. Besides, the TGI with ACHN renal was 23 µM and 187 µM and > 100 µM; in the assay with HOP-92 NSCLC, 50.8 µM and 122 µM and 47.3 µM; with HT29 colon, 141 µM and > 100 µM; in the assay on LOX IMVI melanoma, 30.7 µM and 51.9 µM and > 100 µM; in the assay with M14 melanoma, > 90.7 µM and 108 µM and > 100 µM; with MOLT-4 leukemia it was 27.1 µM and 103 µM and > 100 µM. For the same compound, the TGI in the assay on OVCAR-5 ovarian is 195 µM and > 100 µM; in the assay with SK-OV-3 ovarian, 50.2 µM and 149 µM and > 100 µM; with SR leukemia, > 91.1 µM and 156 µM and > 100 µM; with U251 CNS, > 85.8 µM and 138 µM and > 100 µM.

`CNC(=O)OC1C(O[C@H]2C[C@H]3[C@@H]4CC=C5C[C@@H](O)CC[C@]5(C)[C@H]4CC[C@]3(C)[C@H]2[C@H](C)C(=O)CCC(C)C)OCC(O)C1OC1OCC(O)C(O)C1OC(=O)c1ccc(OC)cc1` (stereo partly drawn): the GI50 in the assay with ACHN renal was 0.263 µM; in the assay with HOP-92 NSCLC, 0.0209 µM; in the assay with HT29 colon it was 0.0631 µM; with LOX IMVI melanoma, 0.0106 µM; in the assay on M14 melanoma, 0.0137 µM; with MOLT-4 leukemia it was 0.00824 µM. Besides, the GI50 with OVCAR-5 ovarian is 0.235 µM; with SK-OV-3 ovarian, 0.0177 µM; in the assay with SR leukemia, 0.0112 µM; in the assay on U251 CNS, 0.00334 µM. For the same compound, the TGI in the assay with ACHN renal turned out to be 5.13 µM; in the assay on HOP-92 NSCLC, 3.1 µM; in the assay on HT29 colon, 4.92 µM; in the assay on LOX IMVI melanoma, 0.0688 µM; in the assay on M14 melanoma it was 0.0757 µM; with MOLT-4 leukemia, 0.0242 µM. Besides, the TGI in the assay on OVCAR-5 ovarian was determined as 5.01 µM; in the assay with SK-OV-3 ovarian it was 1.31 µM; with SR leukemia it was 3.22 µM; in the assay on U251 CNS, 3.87 µM.

For `O=C(NNS(=O)(=O)c1ccc(F)cc1)c1cccnc1Nc1ccc(Cl)cc1Cl`, the GI50 with ACHN renal is 46.1 µM; with HOP-92 NSCLC, 15.4 µM; in the assay on HT29 colon it was 22.1 µM; with LOX IMVI melanoma it was 32.1 µM; in the assay on M14 melanoma it was 46.5 µM; in the assay with MOLT-4 leukemia it was 22.9 µM. Besides, the GI50 was 52.2 µM in the assay on OVCAR-5 ovarian, 38.1 µM with SK-OV-3 ovarian, 22.9 µM in the assay with SR leukemia and 29.1 µM with U251 CNS. Also, the TGI in the assay on ACHN renal is > 100 µM; in the assay on HOP-92 NSCLC, 36.1 µM; in the assay on HT29 colon it was 57.8 µM; in the assay with LOX IMVI melanoma it was > 100 µM; in the assay with M14 melanoma it was > 100 µM; in the assay on MOLT-4 leukemia, > 100 µM. In addition, the TGI in the assay with OVCAR-5 ovarian was > 100 µM; in the assay on SK-OV-3 ovarian, > 100 µM; with SR leukemia it was 67.6 µM; with U251 CNS, > 100 µM.

With `C1=C(c2ccccc2)C(c2ccc(OCCN3CCCCC3)cc2)Oc2ccccc21` (stereo not drawn), the GI50 is 1.66 µM with ACHN renal; 1.56 µM in the assay with HOP-92 NSCLC; 1.76 µM in the assay with HT29 colon; 1.65 µM with LOX IMVI melanoma; 1.73 µM with M14 melanoma; 2.37 µM with MOLT-4 leukemia. In addition, the figures for the GI50 in the assay with OVCAR-5 ovarian, in the assay with SR leukemia and in the assay with U251 CNS were 1.61 µM, 1.93 µM and 1.65 µM, respectively. In addition, the TGI worked out at 3.15 µM in the assay with ACHN renal; 3.25 µM in the assay on HOP-92 NSCLC; 3.86 µM with HT29 colon; 3.01 µM with LOX IMVI melanoma; 3.38 µM with M14 melanoma; 5.84 µM in the assay with MOLT-4 leukemia. The results for the TGI with OVCAR-5 ovarian, in the assay with SR leukemia and with U251 CNS were 3.29 µM, 3.94 µM and 3.18 µM, respectively.
